Among the data in US7932273B2, “3-[(2-{[4-(hexyloxycarbonylaminoiminomethyl) phenylamino]methyl}-1-methyl-1H-benzimidazol-5-carbonyl)pyridin-2-ylamino]propionic acid ethylester methansulfonate and its use as a medicament” (Boehringer Ingelheim International GmbH, priority 2003, dated 2011) are solubility, amorphization and hygroscopicity values, retold here.

Holding throughout (assay type): physicochemical
A short description of data set [1]: solubility in physiologically acceptable acid aqueous media. Particulars: all three crystalline modifications.
Data set [2] can be described thus: amorphization during grinding and compression. The following applies: all three crystalline modifications.
A short description of data set [3]: hygroscopicity of the crystalline modifications. The following applies: in all three crystalline modifications (form I, form II, hemihydrate).

As for `CCCCCCOC(=O)NC(=N)c1ccc(NCc2nc3cc(C(=O)N(CCC(=O)OCC)c4ccccn4)ccc3n2C)cc1` [methanesulfonate, ethyl 3-[(2-{[4-(hexyloxycarbonylaminoimino-methyl)phenylamino]methyl}-1-methyl-1H-benzimidazole-5-carbonyl)pyridin-2-ylamino]propionate methanesulfonate], the solubility result in data set [1] is listed as “dissolves very easily”. Besides, the amorphization entry in data set [2] was “low amorphization”. For the same compound, in data set [3], the hygroscopicity result is “non-hygroscopic”.
